Data from patent publication US5911990A, “T-cell receptor peptides and methods for preventing the progression to AIDS in an animal model” (Arizona Board of Regents on Behalf of the University of …, priority 1996, dated 1999).
Ends that are not written are not given here.

Test: Body weight (Example 2)
Format: in vivo, mice
Settings: various levels of peptide injection or time course of injection postinfection
From the text: Female C57BL/6 mice, 4-weeks old, were obtained from Charles River Laboratories Inc. (Wilmington, Del.). Animals were cared for as required by the University of Arizona Committee on Animal Research. After 2 weeks housing in the animal facility in the Arizona Health Science Center (Tucson, Ariz.), they were randomly assigned to one of the following treatments with 8 mice per group for study A: (1) uninfected, normal mice; (2) uninfected, normal mice injected with saline (pyrogen free); (3) LP-BM5-infected mice injected with 5 μg TCR Vβ CDRI peptide; (4) LP-BM5infected mice injected with 25 μg TCR Vβ CDR1 peptide; (5) LP-BM5 infected mice injected with 100 μg TCR Vβ CDR1 peptide; (6) LP-BM5-infected mice injected with 200 μg TCR Vβ CDR1 peptide; (7) LP-BM5-infected mice injected with 500 μg TCR Vβ CDR1 peptide; (8) LP-BM5-infected mice injected with saline and 200 μg Poly AU adjuvant; (9) LP-BM5-infected mice injected with 25 μg TCR Vβ CDR1 peptide and 230 μg Poly AU adjuvant; (10) LP-BM5-infected mice injected with saline and 230 μg Ribi MPL TDM CWS adjuvant; (11) LP-BM5-infected mice injected with 5 μg TCR Vβ CDR1 peptide and 230 μg Ribi MPL TDM CWS adjuvant; and (12) LP-BM5-infected mice injected with 25 μg TCR Vβ CDR1 peptide and 230 Ribi MPL TDM CWS adjuvant.
Administration of peptides (dissolved in saline) and adjuvants were performed 2 weeks after LP-BM5 infection. […]

Sequence: CKPISGHNSLFWYRQT [TCR Vβ CDR1 peptide, Cys Lys Pro Ile Ser Gly His Asn Ser Leu Phe Trp Tyr Arg Gln Thr]
- body weight of the mice: not affected
